Data as given in patent publication US20160120805A1, “EXOSOMES FOR OROFACIAL DIAGNOSTICS AND THERAPEUTICS” (THE TRUSTEES OF COLUMBIA UNIVERSITY IN THE CITY OF NEW YORK, priority 2013, published 2016).

How the values were obtained:
[1] = system: reconstituted dental epithelium and mesenchyme tissues; assay: Organ culture of reconstituted E16.5 dental epithelium and mesenchyme tissue, dentin formation; format: cell-based; conditions: 10 uM, control formed dentin at day 10
Experimental: E16.5 epithelium and mesenchyme tissue (see e.g., FIG. 9A) were reconstituted (see e.g., FIG. 9B) under dissection microscope. The reconstituted organ were cultured for 12 days (see e.g., FIG. 9C-D).

[2] = system: exosome secretion; assay: Exosome secretion measured by protein concentration; format: cell-based

O=C(/C=C/c1ccc(/C=C/C(=O)Nc2ccc(C3=NCCN3)cc2)cc1)Nc1ccc(C2=NCCN2)cc1 [GW4869]
dentin formation [1]: No dentin formed
exosome secretion ([2]; 1.0 uM): decreased
exosome secretion ([2]; 10.0 uM): decreased
